Results reported in patent US20240108641A1, “COMPOSITIONS FOR ORAL ADMINISTRATION OF ZOLEDRONIC ACID OR RELATED COMPOUNDS FOR TREATING DISEASE” (ANTECIP BIOVENTURES II LLC, priority 2012, published 2024).

System: chronic low back pain (LBP) and Modic changes
Experiment: randomized placebo-controlled trial in chronic low back pain with Modic changes, low back symptoms and lumbar flexibility
Assay type: in vivo, human
Conditions: for Fingers-to-floor, Unadjusted analyses Difference (95% CI) / Intensity of LBP, Unadjusted analyses Difference (95% CI) / Intensity of leg pain, Unadjusted analyses Difference (95% CI) / Oswestry disability index, Unadjusted analyses Difference (95% CI) / Sidebending to left, Unadjusted analyses Difference (95% CI) / Sidebending to right, Unadjusted analyses Difference (95% CI) / Fingers-to-floor, Adjusted analyses Difference (95% CI) / Intensity of LBP, Adjusted analyses Difference (95% CI) / Intensity of leg pain, Adjusted analyses Difference (95% CI) / Oswestry disability index, Adjusted analyses Difference (95% CI) / Sidebending to left, Adjusted analyses Difference (95% CI) / Sidebending to right, Adjusted analyses Difference (95% CI): ZA versus placebo; for Fingers-to-floor, Adjusted analyses Difference (95% CI) / Intensity of LBP, Adjusted analyses Difference (95% CI) / Intensity of leg pain, Adjusted analyses Difference (95% CI) / Oswestry disability index, Adjusted analyses Difference (95% CI) / Sidebending to left, Adjusted analyses Difference (95% CI) / Sidebending to right, Adjusted analyses Difference (95% CI): adjusted for baseline; for Intensity of LBP, Mean (SD) original values: 10 cm VAS
Method: A study was performed to evaluate the efficacy of a single intravenous infusion of 5 mg ZA in comparison with intravenous placebo infusion among patients with chronic low back pain (LBP) and Modic changes on MRI. This study was a double-blinded, randomized, placebo-controlled clinical trial in patients with low back pain (LBP). Patients were included in the study if they had low back symptoms for at least three months, an LBP of at least six (6) on a 10-cm Visual Analog Scale (VAS) or an Oswestry Disability Index (ODI) of at least 30%, and an M1, mixed M1/2 or M2 type change on MRI performed within six months at most prior to enrolment.
Patients were excluded from the study if they had renal impairment with reduced creatinine clearance defined as an estimated glomerular filtration rate (eGFR) below 40 ml/min, hypocalcemia, known hypersensitivity to zoledronic acid or other bisphosphonates or ingredients of the infusion product, the presence of red flags, nerve root entrapment or willingness for early retirement. Premenopausal women of childbearing potential were also excluded. Blood samples were taken prior to the infusion to assess the serum concentration of calcium and creatinine. The clinical examination included medical history and clinical assessment of lumbar flexibility, tendon signs, and motor and sensory testing.
After confirmation of eligibility patients were randomized to receive a single intravenous infusion of 5 mg zoledronic acid (n=20) or 100 ml saline as placebo (n=20) over a 15-minute period. Information on use of the concomitant medication and hospital admissions were recorded. Blood samples were taken for the assessment of safety, inflammatory mediators and markers of bone turnover at baseline, one month and one year.
Clinical assessments were performed 14 days before enrolment (screening visit), and follow-up visits at one month and one year after the infusion. The primary outcome was the change in the intensity of LBP on VAS. Secondary outcomes included leg pain intensity, ODI, health-related quality of life assessed with RAND-36, patient-reported sick leaves and lumbar flexibility. These outcome measures were assessed at baseline and at each follow-up. Lumbar flexibility was evaluated using the fingers-to-floor and trunk side bending measures (in cm). The percentage of patients undergoing a 20% relative improvement, the proportion of patients reaching a VAS score of 40 or less in the primary outcome, and patient acceptable symptom state (PASS) were also assessed. Pain medication use was inquired about during the follow-up visits.

[1] = 12 mos., single 5 mg IV infusion
[2] = one month, single 5 mg IV infusion

SMILES: O=P(O)(O)C(O)(Cn1ccnc1)P(=O)(O)O [zoledronic acid]
- Fingers-to-floor, Unadjusted analyses Difference (95% CI) (1 mo.): 5.0 (−4.8 to 15) cm
- Intensity of LBP, Unadjusted analyses Difference (95% CI) (1 mo.): 1.3 (−0.2 to 2.8)
- Intensity of leg pain, Unadjusted analyses Difference (95% CI) (1 mo.): 0.8 (−0.9 to 2.4)
- Oswestry disability index, Unadjusted analyses Difference (95% CI) (1 mo.): 4.3 (−2.5 to 11) %
- Sidebending to left, Unadjusted analyses Difference (95% CI) (1 mo.): −1.5 (−3.2 to 0.1) cm
- Sidebending to right, Unadjusted analyses Difference (95% CI) (1 mo.): −2.0 (−4.3 to 0.4) cm
- Fingers-to-floor, Adjusted analyses Difference (95% CI) (1 mo.): 3.6 (−5.0 to 12) cm
- Intensity of LBP, Adjusted analyses Difference (95% CI) (1 mo.): 1.4
- Intensity of leg pain, Adjusted analyses Difference (95% CI) (1 mo.): 0.8 (−0.6 to 2.2)
- Oswestry disability index, Adjusted analyses Difference (95% CI) (1 mo.): 6.0%
- Sidebending to left, Adjusted analyses Difference (95% CI) (1 mo.): −1.7 (−3.4 to 0.0) cm
- Sidebending to right, Adjusted analyses Difference (95% CI) (1 mo.): −2.0 (−4.4 to 0.3) cm
- Intensity of LBP, Adjusted analyses Difference (95% CI) (1 mo., listed as ZA): 1.4 (0.01 to 2.9)
- Oswestry disability index, Adjusted analyses Difference (95% CI) (1 mo., listed as ZA): 6.0 (−0.6 to 13) %
- Fingers-to-floor, Mean (SD) change (1 mo., single 5 mg IV infusion): −5.1 (20) cm
- Fingers-to-floor, Mean (SD) original values (1 mo., single 5 mg IV infusion): 17 (17) cm
- Intensity of LBP, Mean (SD) change (1 mo., single 5 mg IV infusion): −2.2 (2.7)
- Intensity of leg pain, Mean (SD) change (1 mo., single 5 mg IV infusion): −0.6 (2.4)
- Intensity of leg pain, Mean (SD) original values (1 mo., single 5 mg IV infusion): 2.0 (2.3)
- Oswestry disability index, Mean (SD) change (1 mo., single 5 mg IV infusion): −5.9 (11) %
- Oswestry disability index, Mean (SD) original values (1 mo., single 5 mg IV infusion): 24 (10) %
- Sidebending to left, Mean (SD) change (1 mo., single 5 mg IV infusion): 1.1 (3.0) cm
- Sidebending to left, Mean (SD) original values (1 mo., single 5 mg IV infusion): 16.1 (5.3) cm
- Sidebending to right, Mean (SD) change (1 mo., single 5 mg IV infusion): 1.5 (4.7) cm
- Sidebending to right, Mean (SD) original values (1 mo., single 5 mg IV infusion): 15.7 (5.9) cm
- Intensity of LBP, Mean (SD) original values (1 mo., single 5 mg IV infusion): 4.3 (2.3)
- Fingers-to-floor, Unadjusted analyses Difference (95% CI) (12 mos.): 7.1 (−4.3 to 18) cm
- Intensity of LBP, Unadjusted analyses Difference (95% CI) (12 mos.): 0.6 (−1.1 to 2.4)
- Intensity of leg pain, Unadjusted analyses Difference (95% CI) (12 mos.): 0.6 (−1.5 to 2.7)
- Oswestry disability index, Unadjusted analyses Difference (95% CI) (12 mos.): 3.1 (−5.6 to 12) %
- Sidebending to left, Unadjusted analyses Difference (95% CI) (12 mos.): −0.7 (−3.5 to 2.1) cm
- Sidebending to right, Unadjusted analyses Difference (95% CI) (12 mos.): −1.6 (−4.3 to 1.1) cm
- Fingers-to-floor, Adjusted analyses Difference (95% CI) (12 mos.): 5.3 (−4.5 to 15) cm
- Intensity of LBP, Adjusted analyses Difference (95% CI) (12 mos.): 0.7
- Intensity of leg pain, Adjusted analyses Difference (95% CI) (12 mos.): 0.5 (−1.3 to 2.2)
- Oswestry disability index, Adjusted analyses Difference (95% CI) (12 mos.): 5.1 (−3.4 to 14) %
- Sidebending to left, Adjusted analyses Difference (95% CI) (12 mos.): −1.0 (−3.8 to 1.8) cm
- Sidebending to right, Adjusted analyses Difference (95% CI) (12 mos.): −1.7 (−4.2 to 0.8) cm
- Intensity of LBP, Adjusted analyses Difference (95% CI) (12 mos., listed as ZA): 0.7 (−1.0 to 2.4)
- Fingers-to-floor, Mean (SD) change [1]: −6.3 (23) cm
- Fingers-to-floor, Mean (SD) original values [1]: 16 (16) cm
- Intensity of LBP, Mean (SD) change [1]: −2.8 (2.9)
- Intensity of leg pain, Mean (SD) change [1]: −0.9 (3.4)
- Intensity of leg pain, Mean (SD) original values [1]: 2.1 (2.8)
- Oswestry disability index, Mean (SD) change [1]: −5.0 (15) %
- Oswestry disability index, Mean (SD) original values [1]: 25 (13) %
- Sidebending to left, Mean (SD) change [1]: 1.2 (5.3) cm
- Sidebending to left, Mean (SD) original values [1]: 16.2 (6.7) cm
- Sidebending to right, Mean (SD) change [1]: 1.6 (4.8) cm
- Sidebending to right, Mean (SD) original values [1]: 15.7 (5.6) cm
- Intensity of LBP, Mean (SD) original values [1]: 3.8 (2.5)
- Pain Reduction, VAS Change from Baseline (Baseline VAS < 6, single 5 mg IV infusion): −0.1 cm
- Pain Reduction, VAS Change from Baseline (Baseline VAS ≥ 6 and <7, single 5 mg IV infusion): −2.3 cm
- Pain Reduction, VAS Change from Baseline (Baseline VAS ≥ 7, single 5 mg IV infusion): −3.4 cm
- mean reduction in pain from baseline (baseline pain intensity <6, single 5 mg IV infusion): 0.1
- mean reduction in pain from baseline (baseline pain intensity ≥7, single 5 mg IV infusion): 3.4
- proportion of patients reaching patient acceptable symptom state (PASS) [2]: 50%
- proportion of patients with at least 20% improvement in intensity of LBP [2]: 55%
- patients using NSAIDs (one year, single 5 mg IV infusion): 20%
